Square brackets hold non-standard residues; d marks the D form. Peptide text beside a SMILES is read from it. * marks the point of attachment. X1 = O=C(O)CC[C@H](NC(=O)N[C@@H](CCCCNC(=O)CCCCCCC(=O)*)C(=O)O)C(=O)O; DOTAGA = O=C(O)CN1CCN(CC(=O)O)CCN(C(CCC(=O)*)C(=O)O)CCN(CC(=O)O)CC1; dPhe(4-NH2) = Nc1ccc(C[C@@H](N)C(=O)O)cc1; dTyr(3-I) = N[C@H](Cc1ccc(O)c(I)c1)C(=O)O; Phe(4-NH2) = Nc1ccc(C[C@H](N)C(=O)O)cc1; d2Nal = N[C@H](Cc1ccc2ccccc2c1)C(=O)O

One series deals with PSMA (Homo sapiens, UniProt Q04609). Put plainly: Internalization of radiolabeled PSMA inhibitors into cells (PMPA blockade). In kind it is cell-based. Further details: endogenous in cells; LNCaP is named only for the xenografts. The settings on record: 177Lu-labeled inhibitors, 37°C; reference basis of the % not stated. As to the method:
The ^177Lu-labeled compounds, for in vitro studies, were prepared as previously described (Sosabowski, J.K. and S.J. Mather, Conjugation of DOTA-like chelating agents to peptides and radiolabeling with trivalent metallic isotopes. Nat. Protocols, 2006. 1(2): p. 972-976) with minor modifications and used without further purification. In short, to a reaction volume of 10 µL 1.0 M NH4OAc buffer pH = 5.9 was added 0.75 to 1.0 nmol tracer (7.5 to 10 µL), 10 to 40 MBq ^177LuCl3 (Specific Activity (AS) > 3000 GBq/mg, 740 MBq/mL, 0.04 M HCl, ITG, Garching, Germany) and finally filled up to 100 µL with trace-pure Water (Merck, Darmstadt, Germany). The reaction mixture was heated for 30 min at 95°C and the radiochemical purity was determined using Radio-TLC.
[…] Each well was treated with either 25 µL of either DMEM-F12 (5% BSA) or a 100 µM PMPA solution for blockade. Next, 25 µL of the respective ^68Ga-and ^177Lu-labeled PSMA inhibitors (2.0 nM / 5.0 nM) was added and the cells incubated at 37°C for 5, 15, 30 and 60 min, respectively. The experiment was terminated by placing the 24-well plate on ice for 3 min and consecutive removal of the medium. Each well was rinsed with 250 µL HBSS and the fractions from these first two steps combined, representing the amount of free radioligand. Removal of surface bound activity was accomplished by incubation of the cells with 250 µL of ice-cold PMPA (10 µM in PBS) solution for 5 min and rinsed again with another 250 µL of ice-cold PBS. The internalized activity was determined by incubation of the cells in 250 µL 1.0 M NaOH and the combination with the fraction of a subsequent wash step with 250 µL 1.0 M NaOH. Each experiment (control and blockade) was performed in triplicate for each time point. Free, surface bound and internalized activity was quantified in a γ-counter.

The format of series [1] is physicochemical. Here is the method: To a volume of 500 µL n-octanol, 0.5 to 1.0 MBq of the radiolabeled PSMA inhibitor in 500 µL PBS (pH = 7.4) was added and rigorously vortexted for 3 min (n = 6). For quantitative phase separation, the mixture was centrifuged at 6,000 g for 5 min (Biofuge 15, Heraus Sepatech, Osterode, Germany).
On the set-up of series [2]: species or system SCID mice. The settings on record: mouse, in vivo. As to the method:
(§1) All animal experiments were carried out in accordance with the general animal welfare regulations in Germany (Deutsches Tierschutzgesetz, approval #55.2-1-54-2532-71-13). For the tumor model, LNCaP cells (approx. 10^7 cells) were suspended 1:1 in serum-free DMEM-F12 medium and Matrigel (BD Biosciences, Germany) and inoculated onto the right shoulder of male, 6 to 8 weeks old CB-17 SCID mice (Charles River Laboratories, Sulzfeld, Germany). Animals were used after the tumor size reached 4 to 8 mm in diameter for experiments.
Imaging experiments were conducted using a Siemens Inveon small animal PET and data analyzed by the associated Inveon Research Workplace software. Mice were anaesthetised with isoflurane and the ^68Ga-radiolabeled PSMA inhibitors (0.2 nmol, 7.0 to 12 MBq) were injected via tail vein. Dynamic imaging was carried out after on-bed injection for 90 min. The static blockade image was obtained, after 1 h p.i. with 15 min acquisition time. Blockade was done by coinjection of 8mg/kg of PMPA. All images were reconstructed using an OSEM3D algorithm without […] and attenuation correction.

In another series the test system is LNCaP xenograft. Further details: species or system SCID mice. Particulars: mouse, in vivo. Here is the method:
as §1

PSMA, sequence (Q04609 whole entry): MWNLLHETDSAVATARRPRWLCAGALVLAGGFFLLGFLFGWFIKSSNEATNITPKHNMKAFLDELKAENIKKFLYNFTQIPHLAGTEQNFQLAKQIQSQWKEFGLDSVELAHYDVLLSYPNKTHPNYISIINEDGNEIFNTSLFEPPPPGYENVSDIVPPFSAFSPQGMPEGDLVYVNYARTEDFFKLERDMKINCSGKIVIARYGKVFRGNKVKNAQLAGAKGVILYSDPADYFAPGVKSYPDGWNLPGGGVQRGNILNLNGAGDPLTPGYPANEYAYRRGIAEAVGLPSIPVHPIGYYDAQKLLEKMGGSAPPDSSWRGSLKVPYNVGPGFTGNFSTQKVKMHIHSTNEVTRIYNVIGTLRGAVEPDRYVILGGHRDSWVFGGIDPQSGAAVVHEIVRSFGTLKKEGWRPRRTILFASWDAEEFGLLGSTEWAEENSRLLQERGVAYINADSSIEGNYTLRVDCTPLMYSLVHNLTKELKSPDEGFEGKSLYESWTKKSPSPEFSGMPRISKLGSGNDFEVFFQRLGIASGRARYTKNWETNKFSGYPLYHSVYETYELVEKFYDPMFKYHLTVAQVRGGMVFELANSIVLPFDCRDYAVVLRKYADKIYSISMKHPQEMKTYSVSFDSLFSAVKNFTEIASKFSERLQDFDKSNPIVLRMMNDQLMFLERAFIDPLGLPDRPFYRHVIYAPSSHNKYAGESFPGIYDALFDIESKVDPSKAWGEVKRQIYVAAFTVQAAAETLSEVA

`Nc1ccc(C[C@@H](NC(=O)CCC(C(=O)O)N2CCN(CC(=O)O)CCN(CC(=O)O)CCN(CC(=O)O)CC2)C(=O)N[C@H](Cc2ccc(O)c(I)c2)C(=O)N[C@H](Cc2ccccc2)C(=O)N[C@H](CCCCNC(=O)CCCCCCC(=O)NCCCC[C@H](NC(=O)N[C@@H](CCC(=O)O)C(=O)O)C(=O)O)C(=O)O)cc1` (stereo partly drawn) [[^nat/177Lu]PSMA-2, DOTAGA-(4-NH2)f-(l-y)-f-k-KuE, metal not drawn] ({DOTAGA}-[dPhe(4-NH2)][dTyr(3-I)][dF][dK](X1)-OH): the “Internalization [%]” value at PSMA worked out at 122.15 ± 1.3%. Moreover, in series [1], the logP was -4.11 ± 0.06. Moreover, the kidney clearance result in series [2] is reported as “accelerated kidney clearance”.

With `Nc1ccc(C[C@H](NC(=O)CCC(C(=O)O)N2CCN(CC(=O)O)CCN(CC(=O)O)CCN(CC(=O)O)CC2)C(=O)N[C@H](Cc2ccc(O)c(I)c2)C(=O)N[C@H](Cc2ccccc2)C(=O)N[C@H](CCCCNC(=O)CCCCCCC(=O)NCCCC[C@H](NC(=O)N[C@@H](CCC(=O)O)C(=O)O)C(=O)O)C(=O)O)cc1` (stereo partly drawn) [[^nat/177Lu]PSMA-3, DOTAGA-(4-NH2)F-(l-y)-f-k-KuE, metal not drawn] ({DOTAGA}-[Phe(4-NH2)][dTyr(3-I)][dF][dK](X1)-OH), on PSMA, the “Internalization [%]” value was 166.92 ± 2.4%. Moreover, in the series on LNCaP xenograft, the Increased tumor uptake result is recorded as “about 200%”.

With `O=C(O)CC[C@H](NC(=O)N[C@@H](CCCCNC(=O)CCCCCCC(=O)NCCCC[C@@H](NC(=O)[C@@H](Cc1ccc2ccccc2c1)NC(=O)[C@@H](Cc1ccc(O)cc1)NC(=O)CCC(C(=O)O)N1CCN(CC(=O)O)CCN(CC(=O)O)CCN(CC(=O)O)CC1)C(=O)O)C(=O)O)C(=O)O` (stereo partly shown) [[^nat/177Lu]PSMA-4, DOTAGA-y-nal-k-KuE, metal not drawn, reference compound], the “Internalization [%]” value on PSMA was found to be 71.7 ± 0.7%. Besides, in series [1], the logP is recorded as -4.11 ± 0.06.

On to `Nc1ccc(C[C@H](NC(=O)CCC(C(=O)O)N2CCN(CC(=O)O)CCN(CC(=O)O)CCN(CC(=O)O)CC2)C(=O)N[C@H](Cc2ccc(O)cc2)C(=O)N[C@H](Cc2ccc3ccccc3c2)C(=O)N[C@H](CCCCNC(=O)CCCCCCC(=O)NCCCC[C@H](NC(=O)N[C@@H](CCC(=O)O)C(=O)O)C(=O)O)C(=O)O)cc1` (stereo partly shown) [[^nat/177Lu]PSMA-6, DOTAGA-(4-NH2)F-y-nal-k-KuE, metal not drawn] ({DOTAGA}-[Phe(4-NH2)][dY][d2Nal][dK](X1)-OH), for which the “Internalization [%]” value at PSMA amounted to 108.8 ± 2.5%.

As for `O=C(O)CC[C@H](NC(=O)N[C@@H](CCCCNC(=O)[C@@H](Cc1ccc(I)cc1)NC(=O)CCCC(=O)NCCCC[C@@H](NC(=O)[C@@H](Cc1ccc2ccccc2c1)NC(=O)[C@@H](Cc1ccc(O)cc1)NC(=O)CCC(C(=O)O)N1CCN(CC(=O)O)CCN(CC(=O)O)CCN(CC(=O)O)CC1)C(=O)O)C(=O)O)C(=O)O` (stereo partly drawn) [[^nat/177Lu]PSMA-10, DOTAGA-y-nal-k(Glut-(l-f)-KuE), metal not drawn, reference compound], the “Internalization [%]” value on PSMA is recorded as 118.6 ± 0.5%. For the same compound, in series [1], the logP was -3.05 ± 0.02.

For the origin of these results see patent EP3494999A1, “PSMA LIGANDS FOR IMAGING AND ENDORADIOTHERAPY” (Technische Universität München, priority 2017, dated 2019).
